PubChem BioAssay AID2060905 (Molecular Pharmacology Branch, DTP, NCI, 2025)

Test system: 282377-053-R-J1-PDC complex spheroid viability
Experiment: Anticancer human tumor 282377-053-R-J1-PDC patient-derived colon adenocarcinoma cell line growth inhibition [RAS]
Settings: for IC50: curve of first compound; for viability, T/C: stronger effect = lower value; active = viability on the fitted dose curve at most 10% of control; inactive = the rest
How it was run: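 Agents were tested in combination matrices in half-log decrements from a top concentration at or near clinical Cmax (10 microM if undetermined). Targets were multi-cell spheroids of tumour lines plus HUVEC and MSC stromal cells.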

[1] = second compound 0.0316 µM, first compound 0.0316 µM
[2] = second compound 0.0316 µM, first compound 0.1 µM
[3] = second compound 0.0316 µM, first compound 0.316 µM
[4] = second compound 0.0316 µM, first compound 1 µM
[5] = second compound 0.0316 µM, first compound 3.16 µM
[6] = second compound 0.0316 µM, first compound 10 µM
[7] = second compound 0.1 µM, first compound 0.0316 µM
[8] = second compound 0.1 µM, first compound 0.1 µM
[9] = second compound 0.1 µM, first compound 0.316 µM
[10] = second compound 0.1 µM, first compound 1 µM
[11] = second compound 0.1 µM, first compound 3.16 µM
[12] = second compound 0.1 µM, first compound 10 µM
[13] = second compound 0.316 µM, first compound 0.0316 µM
[14] = second compound 0.316 µM, first compound 0.1 µM
[15] = second compound 0.316 µM, first compound 0.316 µM
[16] = second compound 0.316 µM, first compound 1 µM
[17] = second compound 0.316 µM, first compound 3.16 µM
[18] = second compound 0.316 µM, first compound 10 µM
[19] = second compound 1 µM, first compound 0.0316 µM
[20] = second compound 1 µM, first compound 0.1 µM
[21] = second compound 1 µM, first compound 0.316 µM
[22] = second compound 1 µM, first compound 1 µM
[23] = second compound 1 µM, first compound 3.16 µM
[24] = second compound 1 µM, first compound 10 µM
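Also: spheroids exposed to agents for seven days before readout.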
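For viability, T/C in this document: luminescence viability as percent of DMSO vehicle control wells.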

Cc1nc(N2CCC3(CC2)COC(C)C3N)c(CO)nc1Sc1ccnc(N)c1Cl (stereo unspecified) + C=CC(=O)N1CCN(c2nc(OCC3CCCN3C)nc3c(F)c(-c4nc(N)cc(C)c4C(F)(F)F)c(Cl)cc23)C(C)C1
> 10 µM: IC50 (second compound 0.00316 µM) | IC50 (second compound 0.01 µM) | IC50 (second compound 0.0316 µM) | IC50 (second compound 0.1 µM) | IC50 (second compound 0.316 µM) | IC50 (second compound 1 µM)
inactive: viability, T/C (second compound 0.00316 µM, first compound 0.0316 µM) 111% | viability, T/C (second compound 0.00316 µM, first compound 0.1 µM) 101% | viability, T/C (second compound 0.00316 µM, first compound 0.316 µM) 118% | viability, T/C (second compound 0.00316 µM, first compound 1 µM) 103% | viability, T/C (second compound 0.00316 µM, first compound 3.16 µM) 108% | viability, T/C (second compound 0.00316 µM, first compound 10 µM) 116% | viability, T/C (second compound 0.01 µM, first compound 0.0316 µM) 100% | viability, T/C (second compound 0.01 µM, first compound 0.1 µM) 122% | viability, T/C (second compound 0.01 µM, first compound 0.316 µM) 103% | viability, T/C (second compound 0.01 µM, first compound 1 µM) 109% | viability, T/C (second compound 0.01 µM, first compound 3.16 µM) 92.5% | viability, T/C (second compound 0.01 µM, first compound 10 µM) 127% | viability, T/C [1] 93.6% | viability, T/C [2] 98.3% | viability, T/C [3] 109% | viability, T/C [4] 82.8% | viability, T/C [5] 76.3% | viability, T/C [6] 124% | viability, T/C [7] 89.5% | viability, T/C [8] 92.4% | viability, T/C [9] 110% | viability, T/C [10] 112% | viability, T/C [11] 105% | viability, T/C [12] 110% | viability, T/C [13] 103% | viability, T/C [14] 96.6% | viability, T/C [15] 85.5% | viability, T/C [16] 101% | viability, T/C [17] 100% | viability, T/C [18] 108% | viability, T/C [19] 106% | viability, T/C [20] 113% | viability, T/C [21] 118% | viability, T/C [22] 86.2% | viability, T/C [23] 110% | viability, T/C [24] 101%

CC(C)NCC(C(=O)N1CCN(c2ncnc3c2C(C)CC3O)CC1)c1ccc(Cl)cc1 (stereo unspecified) + C#Cc1c(F)ccc2cc(O)cc(-c3ncc4c(N5CC6CCC(C5)N6)nc(OCC56CCCN5CC(F)C6)nc4c3F)c12
inactive: viability, T/C [1] 133% | viability, T/C [2] 111% | viability, T/C [3] 88.9% | viability, T/C [4] 94.6% | viability, T/C [5] 84.1% | viability, T/C [6] 82.3% | viability, T/C [7] 88.5% | viability, T/C [8] 86.5% | viability, T/C [9] 76.9% | viability, T/C [10] 90.3% | viability, T/C [11] 83.5% | viability, T/C [12] 72.2% | viability, T/C [13] 104% | viability, T/C [14] 110% | viability, T/C [15] 92.8% | viability, T/C [16] 83% | viability, T/C [17] 85.9% | viability, T/C [18] 85.3% | viability, T/C [19] 105% | viability, T/C [20] 79.8% | viability, T/C [21] 89.2% | viability, T/C [22] 82.5% | viability, T/C [23] 63.7% | viability, T/C [24] 69.5% | viability, T/C (second compound 3.16 µM, first compound 0.0316 µM) 98.5% | viability, T/C (second compound 3.16 µM, first compound 0.1 µM) 96.7% | viability, T/C (second compound 3.16 µM, first compound 0.316 µM) 81.4% | viability, T/C (second compound 3.16 µM, first compound 1 µM) 77.7% | viability, T/C (second compound 3.16 µM, first compound 3.16 µM) 92.1% | viability, T/C (second compound 3.16 µM, first compound 10 µM) 70.4% | viability, T/C (second compound 10 µM, first compound 0.0316 µM) 83% | viability, T/C (second compound 10 µM, first compound 0.1 µM) 87.7% | viability, T/C (second compound 10 µM, first compound 0.316 µM) 88.9% | viability, T/C (second compound 10 µM, first compound 1 µM) 91.4% | viability, T/C (second compound 10 µM, first compound 3.16 µM) 86.4% | viability, T/C (second compound 10 µM, first compound 10 µM) 72.4%
> 10 µM: IC50 (second compound 0.0316 µM) | IC50 (second compound 0.1 µM) | IC50 (second compound 0.316 µM) | IC50 (second compound 1 µM) | IC50 (second compound 3.16 µM) | IC50 (second compound 10 µM)

CC(C)n1nc(-c2ccc3oc(N)nc3c2)c2c(N)ncnc21 + CCn1c(-c2cc(N3CCN(C)CC3)cnc2C(C)OC)c2c3cc(ccc31)-c1csc(n1)CC(NC(=O)C1CC1C)C(=O)N1CCCC(N1)C(=O)OCC(C)(C)C2
> 0.1 µM: IC50 (second compound 0.000949 µM) | IC50 (second compound 0.3 µM)
0.0451 µM: IC50 (second compound 0.0949 µM)
0.0438 µM: IC50 (second compound 0.03 µM)
inactive: viability, T/C (second compound 0.000949 µM, first compound 0.000316 µM) 68.7% | viability, T/C (second compound 0.000949 µM, first compound 0.001 µM) 101% | viability, T/C (second compound 0.000949 µM, first compound 0.00316 µM) 86.2% | viability, T/C (second compound 0.000949 µM, first compound 0.01 µM) 74.5% | viability, T/C (second compound 0.000949 µM, first compound 0.0316 µM) 64.3% | viability, T/C (second compound 0.000949 µM, first compound 0.1 µM) 50.4% | viability, T/C (second compound 0.003 µM, first compound 0.000316 µM) 103% | viability, T/C (second compound 0.003 µM, first compound 0.001 µM) 102% | viability, T/C (second compound 0.003 µM, first compound 0.00316 µM) 77.8% | viability, T/C (second compound 0.003 µM, first compound 0.01 µM) 72.1% | viability, T/C (second compound 0.003 µM, first compound 0.0316 µM) 61.7% | viability, T/C (second compound 0.003 µM, first compound 0.1 µM) 42.1% | viability, T/C (second compound 0.00949 µM, first compound 0.000316 µM) 96.1% | viability, T/C (second compound 0.00949 µM, first compound 0.001 µM) 102% | viability, T/C (second compound 0.00949 µM, first compound 0.00316 µM) 93.8% | viability, T/C (second compound 0.00949 µM, first compound 0.01 µM) 73.4% | viability, T/C (second compound 0.00949 µM, first compound 0.0316 µM) 54.3% | viability, T/C (second compound 0.00949 µM, first compound 0.1 µM) 49.5% | viability, T/C (second compound 0.03 µM, first compound 0.000316 µM) 104% | viability, T/C (second compound 0.03 µM, first compound 0.001 µM) 88% | viability, T/C (second compound 0.03 µM, first compound 0.00316 µM) 88.9% | viability, T/C (second compound 0.03 µM, first compound 0.01 µM) 62.4% | viability, T/C (second compound 0.03 µM, first compound 0.0316 µM) 54% | viability, T/C (second compound 0.03 µM, first compound 0.1 µM) 43.5% | viability, T/C (second compound 0.0949 µM, first compound 0.000316 µM) 100% | viability, T/C (second compound 0.0949 µM, first compound 0.001 µM) 84.9% | viability, T/C (second compound 0.0949 µM, first compound 0.00316 µM) 86.9% | viability, T/C (second compound 0.0949 µM, first compound 0.01 µM) 60.7% | viability, T/C (second compound 0.0949 µM, first compound 0.0316 µM) 57.7% | viability, T/C (second compound 0.0949 µM, first compound 0.1 µM) 39.5% | viability, T/C (second compound 0.3 µM, first compound 0.000316 µM) 90.3% | viability, T/C (second compound 0.3 µM, first compound 0.001 µM) 98.8% | viability, T/C (second compound 0.3 µM, first compound 0.00316 µM) 78.3% | viability, T/C (second compound 0.3 µM, first compound 0.01 µM) 65.5% | viability, T/C (second compound 0.3 µM, first compound 0.0316 µM) 58.9% | viability, T/C (second compound 0.3 µM, first compound 0.1 µM) 48.9%
0.0962 µM: IC50 (second compound 0.00949 µM)
0.0605 µM: IC50 (second compound 0.003 µM)
